Assay: xn = mol fraction of the nth substance listed
Conditions: 101 kPa, Liquid; for mass density: Vibrating tube method; for viscosity: Falling or rolling sphere viscometry

CC[n+]1ccccc1.[Br-] [1-ethylpyridinium bromide] + O
Conditions | mass density [kg/m3] | viscosity [mPa·s]
323.15 K, x1 = 0.027 | 1058.9 | –
323.15 K, x1 = 0.049 | 1100.6 | –
323.15 K, x1 = 0.063 | 1125.8 | –
323.15 K, x1 = 0.086 | 1159.7 | –
323.15 K, x1 = 0.101 | 1179 | –
323.15 K, x1 = 0.147 | 1227.7 | –
323.15 K, x1 = 0.184 | 1257.9 | –
323.15 K, x1 = 0.213 | 1277.5 | –
323.15 K, x1 = 0.25 | 1298.1 | –
323.15 K, x1 = 0.299 | 1319.8 | –
323.15 K, x1 = 0.341 | 1335 | –
323.15 K, x1 = 0.401 | 1353.7 | –
323.15 K, x1 = 0.451 | 1364.3 | –
328.15 K, x1 = 0.027 | 1056.7 | 0.695
328.15 K, x1 = 0.049 | 1097.6 | 0.846
328.15 K, x1 = 0.063 | 1122.7 | 0.961
328.15 K, x1 = 0.086 | 1156.6 | 1.18
328.15 K, x1 = 0.101 | 1175.8 | 1.332
328.15 K, x1 = 0.147 | 1224.4 | 1.9
328.15 K, x1 = 0.184 | 1254.4 | 2.439
328.15 K, x1 = 0.213 | 1274 | 2.977
328.15 K, x1 = 0.25 | 1294.7 | 3.973
328.15 K, x1 = 0.299 | 1316.3 | 4.663
328.15 K, x1 = 0.341 | 1331.6 | 5.733
328.15 K, x1 = 0.401 | 1350.2 | 8.204
328.15 K, x1 = 0.451 | 1360.8 | 10.13
333.15 K, x1 = 0.027 | 1054.6 | 0.644
333.15 K, x1 = 0.049 | 1095.3 | 0.787
333.15 K, x1 = 0.063 | 1119.5 | 0.889
333.15 K, x1 = 0.086 | 1153.8 | 1.088
333.15 K, x1 = 0.101 | 1172.5 | 1.222
333.15 K, x1 = 0.147 | 1221 | 1.737
333.15 K, x1 = 0.184 | 1251 | 2.216
333.15 K, x1 = 0.213 | 1270.6 | 2.698
333.15 K, x1 = 0.25 | 1291.2 | 3.554
333.15 K, x1 = 0.299 | 1312.9 | 4.186
333.15 K, x1 = 0.341 | 1328.1 | 5.129
333.15 K, x1 = 0.401 | 1346.8 | 7.29
333.15 K, x1 = 0.451 | 1357.4 | 8.99
338.15 K, x1 = 0.027 | 1052.4 | 0.612
338.15 K, x1 = 0.049 | 1092.6 | 0.734
338.15 K, x1 = 0.063 | 1116.8 | 0.825
338.15 K, x1 = 0.086 | 1150.9 | 1.006
338.15 K, x1 = 0.101 | 1169.1 | 1.118
338.15 K, x1 = 0.147 | 1217.5 | 1.582
338.15 K, x1 = 0.184 | 1247.5 | 2.019
338.15 K, x1 = 0.213 | 1267.1 | 2.42
338.15 K, x1 = 0.25 | 1287.7 | 3.118
338.15 K, x1 = 0.299 | 1309.4 | 3.788
338.15 K, x1 = 0.341 | 1324.7 | 4.616
338.15 K, x1 = 0.401 | 1343.4 | 6.5
338.15 K, x1 = 0.451 | 1354 | 8.008
343.15 K, x1 = 0.027 | 1050.3 | 0.58
343.15 K, x1 = 0.049 | 1089.9 | 0.689
343.15 K, x1 = 0.063 | 1113.8 | 0.771
343.15 K, x1 = 0.086 | 1147.9 | 0.941
343.15 K, x1 = 0.101 | 1166.3 | 1.045
343.15 K, x1 = 0.147 | 1214 | 1.465
343.15 K, x1 = 0.184 | 1244 | 1.855
343.15 K, x1 = 0.213 | 1263.5 | 2.245
343.15 K, x1 = 0.25 | 1284.2 | 2.805
343.15 K, x1 = 0.299 | 1305.9 | 3.416
343.15 K, x1 = 0.341 | 1321.2 | 4.159
343.15 K, x1 = 0.401 | 1339.9 | 6.011
343.15 K, x1 = 0.451 | 1350.6 | 7.3
348.15 K, x1 = 0.027 | 1048.2 | 0.549
348.15 K, x1 = 0.049 | 1087.2 | 0.649
348.15 K, x1 = 0.063 | 1110.9 | 0.724
348.15 K, x1 = 0.086 | 1144.9 | 0.886
348.15 K, x1 = 0.101 | 1163.2 | 0.982
348.15 K, x1 = 0.147 | 1211.1 | 1.355
348.15 K, x1 = 0.184 | 1240.4 | 1.706
348.15 K, x1 = 0.213 | 1260 | 2.06
348.15 K, x1 = 0.25 | 1280.6 | 2.589
348.15 K, x1 = 0.299 | 1302.4 | 3.124
348.15 K, x1 = 0.341 | 1317.7 | 3.785
348.15 K, x1 = 0.401 | 1336.5 | 5.338
348.15 K, x1 = 0.451 | 1347.1 | 6.657

Source: the NIST ThermoML archive (doi:10.1016/j.fluid.2019.05.003)
